Patent publication US20260034119A1, “5-METHOXY-N,N-[…][…], THEIR […], AND METHODS FOR TREATMENT OF NEUROLOGICAL, […], AND SUBSTANCE USE DISORDERS” (priority 2023, published 2026)
pEC50: −log10 of the molar value. “And” between values parts separate entries of the source, which are not always exact repeats. Equal values may be shown once.

These molecules were tested against 5-HT1A (Homo sapiens, UniProt P08908) (assay: BRET signaling assay: 5-HT1A-mediated activation of heterotrimeric Gi1 (TRUPATH, HEK293-T)). Conditions: EC50 (nM), Gi1 BRET, 5-HT1A WT.

Compound	EC50 [nM]
CN(C)CCc1c[nH]c2ccc(O)cc12 [Bufotenine (5-OH-DMT), Bufotenine, reference compound]	9.29

Same assay, conditions: Gi BRET EC50

Compound	pEC50
CCN(CC)CCc1c[nH]c2ccc(OC)cc12 [Compound 11, 5-MeO-DET]	7.43
COc1ccc2[nH]cc(CCN3CC=CC3)c2c1F [Compound 37, 3-(2-(2,5-dihydro-1H-pyrrol-1-yl)ethyl)-4-fluoro-5-methoxy-1H-indole]	9.66

Same assay, conditions: HEK-293T, read-out: Emax, 5-HT1A-mediated activation of Gi1 (BRET)

Compound	Emax [%]
O=C1CCc2ccc(OCCCCN3CCN(c4cccc(Cl)c4Cl)CC3)cc2N1 [Aripiprazole, aripiprazole, reference compound]	77.1

Same assay, conditions: Table 6, commercial ligands

Compound	Efficacy as %5HT 5-HT1A BRET Gi1 [%5HT]
O=C1CCc2ccc(OCCCCN3CCN(c4cccc(Cl)c4Cl)CC3)cc2N1 [Aripiprazole, aripiprazole, reference compound]	77.1

Same assay, conditions: read-out: Gi BRET EC50

Compound	pEC50
COc1ccc2[nH]cc(CCN3CCCCC3)c2c1 [Compound 5-MeO-PipT, 5-methoxypiperidinyl-tryptamine]	7.05

Same assay, conditions: relative to 5-MeO-PyrT

Compound	loss of potency at 5-HT1A [fold]
COc1ccc2[nH]cc(CCN3CCCCC3)c2c1 [Compound 5-MeO-PipT, 5-methoxypiperidinyl-tryptamine]	~42

Each molecule was assayed against T1, human 5-HT1A (Homo sapiens, UniProt P08908) (assay: 5-HT1A-mediated cAMP reduction assay (GloSensor, HEK293-T)). Conditions: EC50 (nM) Mean Gio(cAMP)-1A, Table 2.
T1 sequence (P08908 1-422): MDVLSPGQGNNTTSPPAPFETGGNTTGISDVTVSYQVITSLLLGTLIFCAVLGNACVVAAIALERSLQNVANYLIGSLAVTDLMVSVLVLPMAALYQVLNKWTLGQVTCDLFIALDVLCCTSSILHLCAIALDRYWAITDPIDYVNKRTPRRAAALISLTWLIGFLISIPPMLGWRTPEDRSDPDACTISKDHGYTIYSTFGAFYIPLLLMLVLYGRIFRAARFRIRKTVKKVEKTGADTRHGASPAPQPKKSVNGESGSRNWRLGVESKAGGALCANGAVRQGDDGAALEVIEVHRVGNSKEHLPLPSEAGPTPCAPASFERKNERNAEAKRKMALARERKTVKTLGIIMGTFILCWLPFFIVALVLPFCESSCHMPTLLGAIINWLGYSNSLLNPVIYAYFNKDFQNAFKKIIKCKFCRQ

Compound	EC50 [nM]
COc1ccc2[nH]cc(CCN3C[C@H]4C=C[C@@H]3CC4)c2c1F [Compound 14]	173
CC[C@H]1C[C@@H]2C=C[C@H]1N(CCc1c[nH]c3ccc(OC)c(F)c13)C2 [Compound 15]	47.3
CCN(CC)CCc1c[nH]c2ccc(O)c(F)c12 [Compound 17]	0.76
Oc1ccc2[nH]cc(CCN3CCCC3)c2c1F [Compound 18]	0.04
COc1ccc2c(c(CCN3CCCC3)cn2C)c1F [Compound 19]	100

Same assay, conditions: pEC50 Gio(cAMP)-1A, Table 2

Compound	pEC50
CC[C@H]1C[C@@H]2C=C[C@H]1N(CCc1c[nH]c3ccc(OC)c(F)c13)C2 [Compound 15]	7.33
Oc1ccc2[nH]cc(CCN3CCCC3)c2c1F [Compound 18]	10.38

The molecules below were run against T1, human 5-HT1A (assay: cell-based). Conditions: not given.

Compound	pEC50
CCN(C)CCc1c[nH]c2ccccc12 [Compound 2]	6.52
CC(C)N(C)CCc1c[nH]c2ccccc12 [Compound 3]	5.70
CC(C)N(CCc1c[nH]c2ccccc12)C(C)C [Compound 4]	5.88
c1ccc2c(CCN3CCCC3)c[nH]c2c1 [Compound 5]	7.72
c1ccc2c(CCN3CCCCC3)c[nH]c2c1 [Compound 6]	6.31
C1=CC2CCC1CN2CCc1c[nH]c2ccccc12 (centres unmarked) [Compound 7]	4.81
C=CCN(CC=C)CCc1c[nH]c2ccc(OC)cc12 [Compound 17]	8.33
COc1ccc2[nH]cc(CCN3CCCC3C)c2c1 (centres unmarked) [Compound 19]	8.62
COc1ccc2[nH]cc(CCn3ccnc3)c2c1 [Compound 22, 3-(2-(1H-imidazol-1-yl)ethyl)-5-methoxy-1H-indole]	6.53
COc1ccc2[nH]cc(CCN3CC=CCC3)c2c1 [Compound 23, 3-(2-(3,6-dihydropyridin-1(2H)-yl)ethyl)-5-methoxy-1H-indole]	8.06
COc1ccc2[nH]cc(CCN3C[C@H]4C=C[C@@H]3CC4)c2c1 [Compound 24]	6.20
COc1ccc2[nH]cc(CCN3CC=CC3)c2c1F [Compound 37, 3-(2-(2,5-dihydro-1H-pyrrol-1-yl)ethyl)-4-fluoro-5-methoxy-1H-indole]	11.64
COc1ccc2[nH]cc(CCN3C[C@H]4C=C[C@@H]3CC4)c2c1F [Compound 38, (1S,4R)-2-(2-(4-fluoro-5-methoxy-1H-indol-3-yl)ethyl)-2-azabicyclo[2.2.2]oct-5-ene]	6.76
CC[C@H]1C[C@@H]2C=C[C@H]1N(CCc1c[nH]c3ccc(OC)c(F)c13)C2 [Compound 39, (1S,4R,7S)-7-ethyl-2-(2-(4-fluoro-5-methoxy-1H-indol-3-yl)ethyl)-2-aza bicyclo[2.2.2]oct-5-ene]	7.32 and 7.33
Oc1ccc2[nH]cc(CCN3CCCC3)c2c1F [Compound 42, 4-fluoro-3-(2-(pyrrolidin-1-yl)ethyl)-1H-indol-5-ol]	10.40 and 10.38
COc1ccc2c(c1)c(CCN1CCCC1)cn2C [Compound 43, 5-methoxy-1-methyl-3-(2-(pyrrolidin-1-yl)ethyl)-1H-indole]	7.05
COc1ccc2c(c1)c(CCN1CC=CC1)cn2C [Compound 44, 3-(2-(2,5-dihydro-1H-pyrrol-1-yl)ethyl)-5-methoxy-1-methyl-1H-indole]	6.68
COc1ccc2c(c1)c(CCn1cccc1)cn2C [Compound 45, 3-(2-(1H-pyrrol-1-yl)ethyl)-5-methoxy-1-methyl-1H-indole]	5.18
COc1ccc2c(c(CCN3CCCC3)cn2C)c1F [Compound 46, 4-fluoro-5-methoxy-1-methyl-3-(2-(pyrrolidin-1-yl)ethyl)-1H-indole]	7.00

Compound	pEC50
COc1ccc2c(c(CCN3CC=CC3)cn2C)c1F [Compound 47, 3-(2-(2,5-dihydro-1H-pyrrol-1-yl)ethyl)-4-fluoro-5-methoxy-1-methyl-1H-indole]	8.56
c1ccc(COc2ccc3[nH]cc(CCN4CCCC4)c3c2)cc1 [Compound 48, 5-(benzyloxy)-3-(2-(pyrrolidin-1-yl)ethyl)-1H-indole]	7.48
Oc1ccc2[nH]cc(CCN3CCCC3)c2c1 [Compound 50, 3-(2-(pyrrolidine-1-yl)ethyl)-1H-indol-5-ol]	10.00 and 10.01
Oc1ccc2[nH]cc(CCN3C[C@H]4C=C[C@@H]3CC4)c2c1 [Compound 51, 3-(2-((1S,4R)-2-azabicyclo[2.2.2]oct-5-eN-2-yl)ethyl)-1H-indol-5-ol]	6.83
CCN(C)CCc1c[nH]c2cccc(O)c12 [Compound 53, 4-OH-MET]	6.11
COc1cccc2[nH]cc(CCN(C)C)c12 [Compound 54, 2-(4-methoxy-1H-indol-3-yl)-N,N-dimethylethan-1-amine]	6.25
COc1cccc2[nH]cc(CCN3CCCC3)c12 [Compound 55, 4-methoxy-3-(2-(pyrrolidin-1-yl)ethyl)-1H-indole]	6.79
CN(C)CCc1c[nH]c2cccc(F)c12 [Compound 57, 2-(4-fluoro-1H-indol-3-yl)-N,N-dimethylethan-1-amine]	7.06
Fc1cccc2[nH]cc(CCN3CCCC3)c12 [Compound 58, 4-fluoro-3-(2-(pyrrolidin-1-yl)ethyl)-1H-indole]	7.78
COc1ccc2c(CCN(C)C)c[nH]c2c1 [Compound 60, 2-(6-methoxy-1H-indol-3-yl)-N,N-dimethylethan-1-amine]	5.49
COc1ccc2c(CCN3CCCC3)c[nH]c2c1 [Compound 61, 6-methoxy-3-(2-(pyrrolidin-1-yl)ethyl)-1H-indole]	6.31
COc1ccc2c(CCN3CC=CC3)c[nH]c2c1 [Compound 62, 3-(2-(2,5-dihydro-1H-pyrrol-1-yl)ethyl)-6-methoxy-1H-indole]	7.51
CN(C)CCc1c[nH]c2cc3c(cc12)OCO3 [Compound 63, 2-(5H-[1,3]dioxolo[4,5-f]indol-7-yl)-N,N-dimethylethan-1-amine]	7.19
c1[nH]c2cc3c(cc2c1CCN1CCCC1)OCO3 [Compound 64, 7-(2-(pyrrolidin-1-yl)ethyl)-5H-[1,3]dioxolo[4,5-f]indole]	8.46
C1=CC2CCC1CN2CCc1c[nH]c2cc3c(cc12)OCO3 (centres unmarked) [Compound 65]	5.01
CCC1C[C@@H]2C=C[C@H]1N(CCc1c[nH]c3cc4c(cc13)OCO4)C2 (stereo partly drawn) [Compound 66, 7-(2-((1S,4R)-7-ethyl-2-azabicyclo[2.2.2]oct-5-en-2-yl)ethyl)-5H-[1,3]dioxolo[4,5-f]indole]	5.77
CCN(C)CCc1c[nH]c2ccc(SC)cc12 [Compound 68, N-ethyl-N-methyl-2-(5-(methylthio)-1H-indol-3-yl)ethan-1-amine]	8.47 and 8.48
Cc1cccc2c(CCN(C)C)c[nH]c12 [Compound 70, N,N-dimethyl-2-(7-methyl-1H-indol-3-yl)ethan-1-amine]	5.92

The molecules below were run against 5-HT2A (Homo sapiens, UniProt P28223) (assay: cell-based). Conditions: not given.
Sequence of 5-HT2A (P28223 whole entry): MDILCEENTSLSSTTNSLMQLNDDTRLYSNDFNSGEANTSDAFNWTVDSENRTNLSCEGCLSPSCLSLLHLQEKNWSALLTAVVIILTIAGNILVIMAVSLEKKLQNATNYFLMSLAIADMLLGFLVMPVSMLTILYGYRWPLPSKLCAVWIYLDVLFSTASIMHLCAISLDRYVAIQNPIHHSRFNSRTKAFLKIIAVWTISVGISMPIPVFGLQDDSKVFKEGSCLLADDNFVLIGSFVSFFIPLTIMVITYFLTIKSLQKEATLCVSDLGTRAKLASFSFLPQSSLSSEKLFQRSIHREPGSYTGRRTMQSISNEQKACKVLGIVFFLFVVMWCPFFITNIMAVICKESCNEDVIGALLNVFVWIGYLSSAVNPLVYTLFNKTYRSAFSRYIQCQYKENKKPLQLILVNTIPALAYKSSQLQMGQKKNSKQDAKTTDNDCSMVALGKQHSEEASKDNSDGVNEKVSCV

Compound	pEC50
CN(C)CCc1c[nH]c2ccccc12 [Compound 1]	7.02 and 7.03
COc1ccc2[nH]cc(CCN3CC=CC3)c2c1F [Compound 37, 3-(2-(2,5-dihydro-1H-pyrrol-1-yl)ethyl)-4-fluoro-5-methoxy-1H-indole]	6.92
